SMILES strings stand for the structures.

This experiment relates to HCV Huh-luc/neo-ET replicon cells. Kind of experiment: Luciferase-Based HCV Replicon Assay (EC50 (1b)). To be noted: Hepatitis C virus, 72 hours exposure, luciferase activity. In kind it is cell-based. In a few lines:
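Replicon cells seeded, then exposed 24 h later to a compound concentration series in triplicate for 72 h. Luciferase luminescence read; % inhibition vs no-compound control, with 100 nM BILN-2061 as background, used to derive EC50 (1b).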
A general note: In antiviral work, replicon cells carry a viral genome segment that copies itself.
In the case of `CS(=O)(=O)NCc1csc2c1S(=O)(=O)N=C(C1=C(O)[C@@H]3[C@@H]4CC[C@@H](C4)[C@@H]3NC1=O)N2` [Example 81, N-[3-((1S,2S,7R,8R)-6-Hydroxy-4-oxo-3-aza-tricyclo[6.2.1.0^2,7]undec-5-en-5-yl)-1,1-dioxo-1,4-dihydro-1λ^6-thieno[2,3-e][1,2,4]thiadiazin-7-ylmethyl]-methanesulfonamide], the EC50 (commonly the midpoint of the concentration-response curve) was greater than 1000 nM.

Regarding `CC(C)(C)CCN1C(=O)C(C2=NS(=O)(=O)c3c(CNS(C)(=O)=O)csc3N2)=C(O)C2C3CCC(C4CC43)C21` (racemic) [Example 24, (rac-di-endo)-N-{3-[3-(3,3-Dimethyl-butyl)-6-hydroxy-4-oxo-3-aza-tetracyclo[6.3.2.0^2,7.0^9,11]tridec-5-en-5-yl]-1,1-dioxo-1,4-dihydro-1λ^6-thieno[2,3-e][1,2,4]thiadiazin-7-ylmethyl}-methanesulfonamide], the 50% effective concentration (EC50) is no more than 5 nM.

In turn, `CS(=O)(=O)NCc1csc2c1S(=O)(=O)N=C(C1=C(O)C3C4CCCC(CC4)C3N(Cc3ccc(F)cc3)C1=O)N2` (racemic) [Example 142, (rac-di-exo)-N-{3-[3-(4-Fluoro-benzyl)-6-hydroxy-4-oxo-3-aza-tricyclo[6.3.2.0^2,7]tridec-5-en-5-yl]-1,1-dioxo-1,4-dihydro-1λ^6-thieno[2,3-e][1,2,4]thiadiazin-7-ylmethyl}-methanesulfonamide] gave a 50% effective concentration (EC50) of 20 to 100 nM.

The compound `CS(=O)(=O)NCc1csc2c1S(=O)(=O)N=C(C1=C(O)C3CCCCC3N(Cc3ccc(F)c(Cl)c3)C1=O)N2` (racemic) [Example 119, (rac-cis)-N-{3-[1-(3-Chloro-4-fluoro-benzyl)-4-hydroxy-2-oxo-1,2,4a,5,6,7,8,8a-octahydro-quinolin-3-yl]-1,1-dioxo-1,4-dihydro-1λ^6-thieno[2,3-e][1,2,4]thiadiazin-7-ylmethyl}-methanesulfonamide] registered an EC50 of 100 to 1000 nM.

On to `Cc1cc(CN2C(=O)C(C3=NS(=O)(=O)c4c(CNS(C)(=O)=O)csc4N3)=C(O)[C@@H]3[C@@H]4CC[C@@H](C4)[C@@H]32)ccc1F` [Example 56, N-{3-[(1S,2S,7R,8R)-3-(4-Fluoro-3-methyl-benzyl)-6-hydroxy-4-oxo-3-aza-tricyclo[6.2.1.0^2,7]undec-5-en-5-yl]-1,1-dioxo-1,4-dihydro-1λ^6-thieno[2,3-e][1,2,4]thiadiazin-7-ylmethyl}-methanesulfonamide], for which the 50% effective concentration (EC50) was 20 to 100 nM.

With `CS(=O)(=O)NCc1csc2c1S(=O)(=O)N=C(C1=C(O)[C@@H]3CCC[C@@H]3N(C3CCCCC3)C1=O)N2` [Example 99, (4aR,7aS)-N-[3-(1-Cyclohexyl-4-hydroxy-2-oxo-2,4a,5,6,7,7a-hexahydro-1H-[1]pyrindin-3-yl)-1,1-dioxo-1,4-dihydro-1λ^6-thieno[2,3-e][1,2,4]thiadiazin-7-ylmethyl]-methanesulfonamide], the EC50 is 100 to 1000 nM.

In the case of `CS(=O)(=O)NCc1csc2c1S(=O)(=O)N=C(C1=C(O)[C@@H]3CCC[C@@H]3N(Cc3ccc(F)cc3)C1=O)N2` [Example 110, (4aR,7aS)-N-{3-[1-(4-Fluoro-benzyl)-4-hydroxy-2-oxo-2,4a,5,6,7,7a-hexahydro-1H-[1]pyrindin-3-yl]-1,1-dioxo-1,4-dihydro-1λ^6-thieno[2,3-e][1,2,4]thiadiazin-7-ylmethyl}-methanesulfonamide], the EC50 was in the range of 5 to 20 nM.

Take `CS(=O)(=O)NCc1csc2c1S(=O)(=O)N=C(C1=C(O)[C@@H]3[C@@H]4CC[C@@H](C4)[C@@H]3N(CC3CCCCC3)C1=O)N2` [Example 102, N-[3-((1S,2S,7R,8R)-3-Cyclohexylmethyl-6-hydroxy-4-oxo-3-aza-tricyclo[6.2.1.0^2,7]undec-5-en-5-yl)-1,1-dioxo-1,4-dihydro-1λ^6-thieno[2,3-e][1,2,4]thiadiazin-7-ylmethyl]-methanesulfonamide]: the EC50 is 20 to 100 nM.

`CC1(CCN2C(=O)C(C3=NS(=O)(=O)c4c(CNS(C)(=O)=O)csc4N3)=C(O)C3C4CCC(CC4)C32)CC1` (stereo not drawn) [Example 109, N-(3-{6-Hydroxy-3-[2-(1-methyl-cyclopropyl)-ethyl]-4-oxo-3-aza-tricyclo[6.2.2.0^2,7]dodec-5-en-5-yl]-1,1-dioxo-1,4-dihydro-1λ^6-thieno[2,3-e][1,2,4]thiadiazin-7-ylmethyl)-methanesulfonamide] gave an EC50 of 5 to 20 nM.

Take `CC(C)CCn1nc(-c2cccs2)c(O)c(C2=NS(=O)(=O)c3c(CNS(C)(=O)=O)csc3N2)c1=O` [Example 28, N-{3-[5-Hydroxy-2-(3-methyl-butyl)-3-oxo-6-thiophen-2-yl-2,3-dihydro-pyridazin-4-yl]-1,1-dioxo-1,4-dihydro-1λ^6-thieno[2,3-e][1,2,4]thiadiazin-7-ylmethyl}-methanesulfonamide]: the EC50 lay within 100 to 1000 nM.

`Cc1cc(CN2C(=O)C(C3=NS(=O)(=O)c4c(CNS(C)(=O)=O)csc4N3)=C(O)[C@@H]3C4CCC(CC4)[C@@H]32)ccc1F` [Example 52, N-{3-[(2S,7R)-3-(4-Fluoro-3-methyl-benzyl)-6-hydroxy-4-oxo-3-aza-tricyclo[6.2.2.0^2,7]dodec-5-en-5-yl]-1,1-dioxo-1,4-dihydro-1λ^6-thieno[2,3-e][1,2,4]thiadiazin-7-ylmethyl}-methanesulfonamide] had a half-maximal effective concentration (EC50) of no more than 5 nM.

Compound `CS(=O)(=O)NCc1csc2c1S(=O)(=O)N=C(C1=C(O)C3CCCCCC3N(Cc3ccc(F)c(Cl)c3)C1=O)N2` (racemic) [Example 123, (rac-cis)-N-{3-[1-(3-Chloro-4-fluoro-benzyl)-4-hydroxy-2-oxo-2,4a,5,6,7,8,9,9a-octahydro-1H-cyclohepta[b]pyridin-3-yl]-1,1-dioxo-1,4-dihydro-1λ^6-thieno[2,3-e][1,2,4]thiadiazin-7-ylmethyl}-methanesulfonamide] showed an EC50 of 100 to 1000 nM.

In turn, `CS(=O)(=O)NCc1csc2c1S(=O)(=O)N=C(C1=C(O)C3CCCCC3NC1=O)N2` (racemic) [Example 86, (rac-cis)-N-[3-(4-Hydroxy-2-oxo-1,2,4a,5,6,7,8,8a-octahydro-quinolin-3-yl)-1,1-dioxo-1,4-dihydro-1λ^6-thieno[2,3-e][1,2,4]thiadiazin-7-ylmethyl]-methanesulfonamide] registered an EC50 greater than 1000 nM.

The compound `CC(C)CC1CC(O)=C(C2=NS(=O)(=O)c3c(CNS(C)(=O)=O)csc3N2)C(=O)N1Cc1ccc(F)cc1` (racemic) [Example 7, rac-N-{3-[1-(4-Fluoro-benzyl)-4-hydroxy-6-isobutyl-2-oxo-1,2,5,6-tetrahydro-pyridin-3-yl]-1,1-dioxo-1,4-dihydro-1λ^6-thieno[2,3-e][1,2,4]thiadiazin-7-ylmethyl}-methanesulfonamide] had an EC50 of 100 to 1000 nM.

Take `CC(C)CCC1(C)CN(C2CC2)C(=O)C(C2=NS(=O)(=O)c3c(CNS(C)(=O)=O)csc3N2)=C1O` (racemic) [Example 19, rac-N-{3-[1-Cyclopropyl-4-hydroxy-5-methyl-5-(3-methyl-butyl)-2-oxo-1,2,5,6-tetrahydro-pyridin-3-yl]-1,1-dioxo-1,4-dihydro-1λ^6-thieno[2,3-e][1,2,4]thiadiazin-7-ylmethyl}-methanesulfonamide]: the EC50 was 100 to 1000 nM.

The compound `CS(=O)(=O)NCc1csc2c1S(=O)(=O)N=C(C1=C(O)[C@@H]3CCC[C@@H]3N(Cc3ccc(F)cc3F)C1=O)N2` [Example 112, (4aR,7aS)-N-{3-[1-(2,4-Difluoro-benzyl)-4-hydroxy-2-oxo-2,4a,5,6,7,7a-hexahydro-1H-[1]pyrindin-3-yl]-1,1-dioxo-1,4-dihydro-1λ^6-thieno[2,3-e][1,2,4]thiadiazin-7-ylmethyl}-methanesulfonamide] registered an EC50 of 20 to 100 nM.

In turn, `Cc1cc(CN2C(=O)C(C3=NS(=O)(=O)c4c(CNS(C)(=O)=O)csc4N3)=C(O)[C@@H]3CCC[C@@H]32)ccc1F` [Example 126, (4aR,7aS)-N-{3-[1-(4-Fluoro-3-methyl-benzyl)-4-hydroxy-2-oxo-2,4a,5,6,7,7a-hexahydro-1H-[1]pyrindin-3-yl]-1,1-dioxo-1,4-dihydro-1λ^6-thieno[2,3-e][1,2,4]thiadiazin-7-ylmethyl}-methanesulfonamide] gave a concentration giving a half-maximal response (EC50) of 20 to 100 nM.

For the compound `CS(=O)(=O)NCc1csc2c1S(=O)(=O)N=C(C1=C(O)[C@@H]3C4CCC(CC4)[C@@H]3N(Cc3ccc(F)cc3)C1=O)N2` [Example 91, N-{3-[(2S,7R)-3-(4-Fluoro-benzyl)-6-hydroxy-4-oxo-3-aza-tricyclo[6.2.2.0^2,7]dodec-5-en-5-yl]-1,1-dioxo-1,4-dihydro-1λ^6-thieno[2,3-e][1,2,4]thiadiazin-7-ylmethyl}-methanesulfonamide], the EC50 is no more than 5 nM.

In turn, `CS(=O)(=O)NCc1csc2c1S(=O)(=O)N=C(C1=C(O)C3CCCCCC3NC1=O)N2` (racemic) [Example 87, (rac-cis)-N-[3-(4-Hydroxy-2-oxo-2,4a,5,6,7,8,9,9a-octahydro-1H-cyclohepta[b]pyridin-3-yl)-1,1-dioxo-1,4-dihydro-1λ^6-thieno[2,3-e][1,2,4]thiadiazin-7-ylmethyl]-methanesulfonamide] yielded an EC50 greater than 1000 nM.

Regarding `CC(C)CC1CN(Cc2ccc(F)cc2)C(=O)C(C2=NS(=O)(=O)c3c(CNS(C)(=O)=O)csc3N2)=C1O` (racemic) [Example 17, rac-N-{3-[1-(4-Fluoro-benzyl)-4-hydroxy-5-isobutyl-2-oxo-1,2,5,6-tetrahydro-pyridin-3-yl]-1,1-dioxo-1,4-dihydro-1λ^6-thieno[2,3-e][1,2,4]thiadiazin-7-ylmethyl}-methanesulfonamide], the EC50 lay within 100 to 1000 nM.

As to `CC(C)(C)CCN1C(=O)C(C2=NS(=O)(=O)c3c(CNS(C)(=O)=O)csc3N2)=C(O)[C@@H]2[C@@H]3CC[C@@H](C3)[C@@H]21` [Example 59, N-{3-[(1S,2S,7R,8R)-3-(3,3-Dimethyl-butyl)-6-hydroxy-4-oxo-3-aza-tricyclo[6.2.1.0^2,7]undec-5-en-5-yl]-1,1-dioxo-1,4-dihydro-1λ^6-thieno[2,3-e][1,2,4]thiadiazin-7-ylmethyl}-methanesulfonamide], the concentration giving a half-maximal response (EC50) is 20 to 100 nM.

The record behind these values is US8222404B2, “[1,2,4]Thiadiazin-3-yl acetic acid compound and methods of making the acetic acid compound” (Anadys Pharmaceuticals, Inc., priority 2008, dated 2012).
